Data: US20190062846A1, “COMPOSITIONS AND METHODS FOR SCREENING PEDIATRIC GLIOMAS AND METHODS OF TREATMENT THEREOF” (DANA-FARBER CANCER INSTITUTE, INC., priority 2016, published 2019)

Assays:
[1] = test system: mouse neural stem cells engineered to express truncated MYB; assay: Percentage viability of mouse neural stem cells after increased doses of inhibitor; assay type: cell-based; conditions: mNSCs expressing truncated MYB; doses 0, 0.05, 0.1, 0.3, 0.5, 1 μM; in comparison with GFP-expressing mNSCs; FIG. 42B
Method: (§1) FIGS. 42A-D are a set of graphs showing percentage viability of mouse neural stem cells expressing GFP (FIG. 42A), truncated MYB (FIG. 42B), MYB-QKI5 (short variant) (FIG. 42C), and MYB-QKI6 (short variant) (FIG. 42D) after the treatment of increased doses (0, 0.05, 0.1, 0.3, 0.5, and 1 μM) of JQ1, THZ1 (“CDK7i”), and DMSO as negative control.
(§2) FIG. 44 is a graph showing the percentage viability of mouse neural stem cells expressing GFP (“GFP”), truncated MYB (“MYBtr”), MYB-QKI5 (short variant) (“MYBQKI5”), and MYB-QKI6 (short variant) (“MYBQKI6”) after the treatment of increased doses (0, 0.05, 0.1, 0.3, 0.5, and 1 μM) of dasatinib or DMSO as negative control.
(§3) Modifiers of the MYB pathway and key upstream and downstream effectors were examined for their ability to inhibit growth and induce death of cells expressing MYB-QKI fusion protein. […] Thus, cells expressing truncated MYB or MYB-QKI were specifically sensitive to inhibition of BET by JQ1.
(§4) 1,000 cells/well were plated in 96-well plates, with five replicates. Cell viability was measured by assessing ATP content using CellTiter-Glo (Promega). Means±s.e.m. were calculated.

[2] = test system: mouse neural stem cells engineered to express MYB-QKI6 (short variant); assay: as above; assay type: cell-based; conditions: mNSCs expressing MYB-QKI6 (short variant); doses 0, 0.05, 0.1, 0.3, 0.5, 1 μM; in comparison with GFP-expressing mNSCs; FIG. 42D
Method: as §1, §2, §3, §4

[3] = test system: mouse neural stem cells engineered to express MYB-QKI5 (short variant); assay: as above; assay type: cell-based; conditions: mNSCs expressing MYB-QKI5 (short variant); doses 0, 0.05, 0.1, 0.3, 0.5, 1 μM; in comparison with GFP-expressing mNSCs; FIG. 42C
Method: as §1, §2, §3, §4

[4] = test system: truncated MYB ("MYBtr"); assay: Quantity of protein after treatment with DUB inhibitor; assay type: cell-based, human; conditions: after treatment with PR619; FIG. 45
From the text: (§5) FIG. 45 is a graph showing the quantity of truncated MYB or MYB-QKI fusion protein after the treatment with PR619.
(§6) Another possible approach of suppressing cells expressing truncated MYB or MYB-QKI is reducing the amount of the truncated MYB or MYB-QKI protein, for example, by increasing the degradation of this protein. DUBs remove ubiquitination and thereby increase the half-life of proteins. Thus, DUB inhibitors may accelerate the degradation of truncated MYB or MYB-QKI.
(§7) Cells were lysed and subjected to SDS-PAGE gradient gels as previously described3l. Blots were probed with antibodies against MYB (ab45150, Abcam at 1:500 dilution), QKI (A300-183A, Bethyl Laboratories at 1:1,000 dilution) and actin (sc-1615, Santa Cruz Biotechnology at 1:2,000 dilution).

[5] = test system: MYB-QKI6 (short variant) fusion protein; assay: as above; assay type: cell-based, human; conditions: after treatment with PR619; FIG. 45
From the text: as §5, §6, §7

[6] = test system: MYB-QKI5 (short variant) fusion protein; assay: as above; assay type: cell-based, human; conditions: after treatment with PR619; FIG. 45
From the text: as §5, §6, §7

[7] = test system: mouse neural stem cells engineered to express truncated MYB; assay: Cell growth of mouse neural stem cells over a time course; assay type: cell-based; conditions: mNSCs expressing truncated MYB; 0.5 μM or 1 μM; 0, 1, 3, 5 days; in comparison with GFP-expressing mNSCs; FIG. 43B
Method: (§8) FIGS. 43A-D are a set of graphs showing cell growth of mouse neural stem cells expressing GFP (FIG. 43A), truncated MYB (FIG. 43B), MYB-QKI5 (short variant) (FIG. 43C), and MYB-QKI6 (short variant) (FIG. 43D) over a time course (0, 1, 3, and 5 days) in the presence of 0.5 μM or 1 μM of LY2835219 (“CDK4/6 inhibitor”).
(§9) Inhibition of CDK7 was also examined using a specific CDK7 inhibitor THZ1. […] Thus, cells expressing MYB-QKI were sensitive to inhibition of CDK7 by THZ1. This effect is specific with CDK7. […] Thus, cells expressing truncated MYB or MYB-QKI were specifically sensitive to inhibition of CDK7 by THZ1.
as §4

[8] = test system: mouse neural stem cells engineered to express MYB-QKI6 (short variant); assay: as above; assay type: cell-based; conditions: mNSCs expressing MYB-QKI6 (short variant); 0.5 μM or 1 μM; 0, 1, 3, 5 days; in comparison with GFP-expressing mNSCs; FIG. 43D
Method: as §8, §9, §4

[9] = test system: mouse neural stem cells engineered to express MYB-QKI5 (short variant); assay: as above; assay type: cell-based; conditions: mNSCs expressing MYB-QKI5 (short variant); 0.5 μM or 1 μM; 0, 1, 3, 5 days; in comparison with GFP-expressing mNSCs; FIG. 43C
Method: as §8, §9, §4

Compound | viability of cells [1] | viability of cells [2] | viability of cells [3] | further results
CN(C)C/C=C/C(=O)Nc1ccc(C(=O)Nc2cccc(Nc3ncc(Cl)c(-c4c[nH]c5ccccc45)n3)c2)cc1 [THZ1] | significantly compromised the viability | significantly compromised the viability | significantly compromised the viability | –
N#CSc1cc(SC#N)c(N)nc1N [PR619] | – | – | – | amount of truncated MYB protein [4]: reduced the amount; amount of MYB-QKI6 (short variant) protein [5]: reduced the amount; amount of MYB-QKI5 (short variant) protein [6]: reduced the amount
Cc1sc2c(c1C)C(c1ccc(Cl)cc1)=N[C@@H](CC(=O)OC(C)(C)C)c1nnc(C)n1-2 [JQ1] | significantly compromised the viability | significantly compromised the viability | significantly compromised the viability | –
CCN1CCN(Cc2ccc(Nc3ncc(F)c(-c4cc(F)c5nc(C)n(C(C)C)c5c4)n3)nc2)CC1 [LY2835219] | – | – | – | cell growth [7]: did not strongly inhibit the growth; cell growth [8]: did not strongly inhibit the growth; cell growth [9]: did not strongly inhibit the growth
